Data set [1] deals with male mice (NMRI). The data set can be described thus: Electroshock. The format is in vivo, mouse. As for the experimental part: (§1) In the case of all substances, there was used in the cramp test as vehicle 0.8% Methocel mucilage. The premedication time amounted to 30 minutes, insofar as nothing else is stated, and the administration took place i.g. in 20 ml/kg body weight.
(§2) Experimental animals were male mice (NMRI) with a body weight of 18 to 24 g., which were kept under controlled conditions. Twenty-four hours (if not stated otherwise) before commencement of the experiment, the feed was withdrawn but, up to the commencement of the experiment, the drinking water was left.
(§3) Per dosage, in each case ten animals were subjected to the test.
3. […] For the transmission of the current impact, electrodes in the form of ear clips were fixed to the ears of the mouse. The period of the shock amounted to 0.3 s., the current strength to 35 mA (voltage self-regulating).

Data set [2] concerns male mice (NMRI). Nature of the data set: Pentetrazole cramp. To be noted: po, 20 min; for ED50: read-out: ED50 pentetrazole cramp. Format: in vivo, mouse. As for the experimental part:
as §1, §2, §3

In data set [3] the test system is male mice (NMRI). Nature of the data set: Semicarbazide cramp. The format is in vivo, mouse. Conditions: po, 1.5 h; for ED50: read-out: ED50 semicarbazide cramp. As to the method: as §1, §2, §3
7. Semicarbazide cramp--Semicarbazide hydrochloride was used as cramp agent in a dosage of 1000 mg/kg s.c. The observation time amounted in each case to 90 minutes p.a.

Data set [4] deals with male mice (NMRI). The data set can be described thus: Picrotoxin cramp. Format: in vivo, mouse. To be noted: for ED50: Mus musculus, po, 20 min, read-out: ED50 picrotoxin cramp; for ED50 picrotoxin cramp: i.g., male mouse, picrotoxin 15 mg/kg s.c., observation 20 min. As to the method:
as §1, §2, §3

The subject of data set [5] is male mice (NMRI). Nature of the data set: Strychnine cramp. Format: in vivo, mouse. To be noted: for ED50 strychnine cramp: i.g., male mouse, strychnine 1.1 mg/kg s.c., observation 20 min; for ED50: Mus musculus, po, 20 min, read-out: ED50 strychnine cramp. As to the method: as §1, §2, §3
2. Strychnine cramp--As convulsive, there was used strychnine nitric cryst in a dosage of 1.1 mg/kg s.c., whereby the observation time amount to 20 minutes p.a.

The subject of data set [6] is male mice (NMRI). The data set can be described thus: Isoniazide cramp. The format is in vivo, mouse. Conditions: po, 1.5 h, read-out: ED50 isoniazide cramp. As to the method:
as §1, §2, §3

Data set [7] deals with male mice (NMRI). Nature of the data set: Bicuculline cramp. Conditions: po, 20 min; i.g., male mouse; bicuculline 3.0 mg/kg s.c.; observation 20 min. The format is in vivo. As for the experimental part: as §1, §2, §3
(§4) As positive standard, there were used phenytoin, valproate, GABA and baclofen.
6. Bicuculline cramp--Cramp agent was bicuculline purum. The dosage amounted to 3.0 mg/kg s.c. The observation time amount to 20 minutes.

For a further data set, the system named is DBA/2j mice. The data set can be described thus: Audiogenic cramps. To be noted: po, 1 min, read-out: ED50 audiogenic cramp. Format: in vivo, mouse. As to the method:
as §1
(§5) In the case of the audiogenic cramps, DBA/2j mice of male sex were used in a weight of 5-10 g which, on the day before the experiment, were removed and not fasted.
as §3
9. […] The observation time amount to one minute.

The subject of data set [8] is male mice (NMRI). The data set can be described thus: 3-Mercaptopropionic acid cramp (3-MPA). The format is in vivo, mouse. To be noted: po, 0.5 h, read-out: ED50 3-MPA cramp. As to the method:
as §1, §2, §3
8. 3-Mercaptopropionic acid--3-Mercaptopropionic acid was diluted with physiological NaCl solution, adjusted with 6 mol/l NaOH to PH 7 and brought with NaCl solution to the end volume (10 ml/kg). The observation time amounted to 30 minutes.

The next data set is described as follows: in vivo. Conditions: mouse, po. As for the experimental part: The determination of the acute toxicity was carried out on male mice (NMRI) with a body weight of 18-23 g. All experimental animals were fasted for 20 hours before commencement of the experiment. Water was available ad libitum. To each dosage group there belonged four animals. The dosage sequence was logarithmic. The test substances were administered intragastrally as suspension in 0.88% Methocel. The volume of administration amounted to 20 ml/kg.

Another data set relates to mice. The data set can be described thus: Comparative investigations of the anticonvulsive action in cramp models 1-9 (overall). Format: in vivo. Conditions: all cramp models, i.g., male mouse. As for the experimental part:
as §1, §2, §5, §3, §4

Where [9] appears, read: i.g., male mouse, isoniazide 250 mg/kg s.c., observation 90 min.
[10] abbreviates: i.g., male DBA/2j mouse, 10.9 KHz sound of 110 dBA, 30 s, observation 1 min.
The mark [11] stands for this setting: i.g., male mouse, pentetrazole 140 mg/kg s.c., observation 20 min.
The mark [12] stands for this setting: i.g., male mouse, semicarbazide hydrochloride 1000 mg/kg s.c., observation 90 min.
The mark [13] stands for this setting: po, 5 min, i.g., male mouse, 35 mA, 0.3 s, observation 5 min, read-out: ED50 electroshock.
Where [14] appears, read: i.g., male mouse, 3-mercaptopropionic acid, observation 30 min.

Molecules are shown by their SMILES. Read-outs that look alike come from different tables or passages of the source.

On to `O=C1NC(=O)C(c2ccccc2)(c2ccccc2)N1` [phenytoin], for which the 50% effective dose (ED50) turned out to be 12.5 mg/kg in the data set with male mice (NMRI) [1] (Mus musculus, iv, 5 min, read-out: ED50 electroshock (i.v.)); 200 mg/kg with male mice (NMRI) [4]; 38 mg/kg with male mice (NMRI) [6] (setting [9]); 12.5 mg/kg in the data set with male mice (NMRI) [7]; 2.3 mg/kg with DBA/2j mice (setting [10]). Moreover, the ED100 was 50 mg/kg in the data set with male mice (NMRI) [1] (po, 5 min, ED 100, i.g., male mouse) and 50 mg/kg in the data set on male mice (NMRI) [2] (ED 100, i.g., male mouse). The molecule also returned an ED90 in the data set with male mice (NMRI) [3] (ED 90, i.g., male mouse) of 50 mg/kg. In addition, the ED50 strychnine cramp result with male mice (NMRI) [5] was “inactive”.

Consider `NCCCC(=O)O` [GABA], for which the ED50 electroshock result in the data set on male mice (NMRI) [1] (i.g., male mouse, 35 mA, 0.3 s, observation 5 min) is “inactive”. Moreover, the ED50 with male mice (NMRI) [2] (setting [11]) came to 500 mg/kg; in the data set with male mice (NMRI) [3] (setting [12]), 60 mg/kg. In addition, the ED50 picrotoxin cramp entry with male mice (NMRI) [4] is “inactive”. Also, the ED50 strychnine cramp entry with male mice (NMRI) [5] was “inactive”.

For `CCCC(CCC)C(=O)O` [valproate], in the data set with male mice (NMRI) [1] (Mus musculus, po, 5 min, read-out: ED 40 electroshock), the ED40 was 200 mg/kg. The ED50 in the data set on male mice (NMRI) [2] (Mus musculus) was around 250 mg/kg; in the data set with male mice (NMRI) [3] (Mus musculus) it was 100 mg/kg; in the data set on male mice (NMRI) [8] (Mus musculus), 154 mg/kg; with male mice (NMRI) [6] (Mus musculus) it was 135 mg/kg. For the same molecule, the ED50 picrotoxin cramp result in the data set on male mice (NMRI) [4] was “inactive”. Also, the ED50 strychnine cramp entry in the data set on male mice (NMRI) [5] was “inactive”. Further, the LD50 at 168 h in the data set “in vivo” is 2000 mg/kg. Further, the selectivity ratio in the data set “in vivo” is 8 to 14.8.

With `Cc1cccc(Cl)c1NC(=O)/C=C1\SCC(=O)N1C` [2 (i), (Z)-(3-methyl-4-oxothiazolidin-2-ylidene)-N-(2-chloro-6-methylphenyl)-acetamide], the ED50 with male mice (NMRI) [1] (setting [13]) was determined as 6.47 mg/kg; in the data set with male mice (NMRI) [2] (setting [11]), 1.9 mg/kg; in the data set with male mice (NMRI) [3] (setting [12]) it was 1.59 mg/kg; in the data set with male mice (NMRI) [4] it was 2.34 mg/kg; in the data set on male mice (NMRI) [5], 5.09 mg/kg; in the data set with male mice (NMRI) [8] (setting [14]), 1.29 mg/kg. In addition, the ED50 in the data set with male mice (NMRI) [6] (setting [9]) came to 1.24 mg/kg; in the data set with male mice (NMRI) [7], 0.9 mg/kg; in the data set with DBA/2j mice (setting [10]), 3 mg/kg. In the data set “in vivo”, this molecule showed a median lethal dose (LD50) at 168 h above 1600 mg/kg. Moreover, in the data set “in vivo”, the selectivity ratio was in the range of 243 to 1780.

In the case of `NCC(CC(=O)O)c1ccc(Cl)cc1` (centres unmarked) [baclofen], the ED50 in the data set on male mice (NMRI) [1] (Mus musculus, po, 5 min, read-out: ED50 electroshock) is 20 mg/kg; in the data set with male mice (NMRI) [2] (Mus musculus), 100 mg/kg; in the data set with male mice (NMRI) [3] (Mus musculus), 4 mg/kg; in the data set on male mice (NMRI) [4], 30 mg/kg; with male mice (NMRI) [5], 8.5 mg/kg; in the data set on male mice (NMRI) [8] (Mus musculus), 20 mg/kg. The ED50 is 2 mg/kg in the data set on male mice (NMRI) [6] (Mus musculus), 20 mg/kg in the data set on male mice (NMRI) [7] and 5 mg/kg in the data set with DBA/2j mice (Mus musculus). The molecule also returned a 50% lethal dose (LD50) at 168 h in the data set “in vivo” of 200 mg/kg. For the same molecule, in the data set “in vivo”, the selectivity ratio is 2 to 100. Also, the Side effects entry with mice is recorded as “Side effects in all models”.

For the molecule `Cc1cccc(C)c1NC(=O)/C=C1\SCC(=O)N1C` [2 (a), (Z)-(3-Methyl-4-oxothiazolidin-2-ylidene)-N-(2,6-dimethylphenyl)-acetamide], the ED50 in the data set with male mice (NMRI) [1] (setting [13]) turned out to be 13.6 mg/kg; in the data set on male mice (NMRI) [2] (setting [11]), 19.9 mg/kg; in the data set with male mice (NMRI) [3] (setting [12]), 14.1 mg/kg; in the data set on male mice (NMRI) [4] it was 11.3 mg/kg; in the data set with male mice (NMRI) [5] it was 14.9 mg/kg; in the data set on male mice (NMRI) [8] (setting [14]) it was 8.7 mg/kg. Also, the ED50 with male mice (NMRI) [6] (setting [9]) came to 5.32 mg/kg; with male mice (NMRI) [7], 2.68 mg/kg; in the data set with DBA/2j mice (setting [10]), 2.9 mg/kg. Further, in “in vivo”, the 50% lethal dose (LD50) at 168 h is 1980 mg/kg. The selectivity ratio in the data set “in vivo” lay within 99.8 to 739.

Turning to `CN1C(=O)CS/C1=C\C(=O)Nc1c(Cl)cccc1Cl` [2 (j), (Z)-(3-methyl-4-oxothiazolidin-2-ylidene)-N-(2,6-dichlorophenyl)-acetamide], the ED50 with male mice (NMRI) [1] (setting [13]) stood at 4.03 mg/kg; in the data set with male mice (NMRI) [2] (setting [11]), 1.8 mg/kg; in the data set with male mice (NMRI) [3] (setting [12]) it was 3.41 mg/kg; with male mice (NMRI) [4], 1.52 mg/kg; in the data set on male mice (NMRI) [5], 5.68 mg/kg; in the data set with male mice (NMRI) [8] (setting [14]) it was 1.73 mg/kg. Further, the ED50 is 5 mg/kg in the data set on male mice (NMRI) [6] (setting [9]), 0.8 mg/kg in the data set with male mice (NMRI) [7] and 2 mg/kg with DBA/2j mice (setting [10]). Besides, the 50% lethal dose (LD50) at 168 h in the data set “in vivo” came to 1600 mg/kg. Besides, in “in vivo”, the selectivity ratio was 282 to 2000.

In general, ED50 refers to the dose at which the effect has come halfway, by size or by number of responders. Usually LD50 stands for the dose at which mortality reaches 50%. The low end stands for a more toxic substance, the high end for a less toxic substance.

The record behind these values is patent publication US4563471A, “4-Oxothiazolidin-2-ylidene-acetamide derivatives as CNS agents” (Warner-Lambert Company, priority 1983, dated 1986).
